From patent US8399444B2, “Bicyclic imidazole as DP1 receptor antagonists” (GlaxoSmithKline Intellectual Property Development Ltd., priority 2008, dated 2013)
Values joined by “and” are separate entries in the source; they are usually repeats but may differ in a detail not shown here. Equal values may be shown once. Where a name gives a salt, the structure may show the parent alone.

Biological target: T1, Prostanoid DP1 receptor (Homo sapiens, UniProt Q13258)
T1 construct: expressed in transfected cells; host or cells: CHO K1
T1 sequence (Q13258 1-359): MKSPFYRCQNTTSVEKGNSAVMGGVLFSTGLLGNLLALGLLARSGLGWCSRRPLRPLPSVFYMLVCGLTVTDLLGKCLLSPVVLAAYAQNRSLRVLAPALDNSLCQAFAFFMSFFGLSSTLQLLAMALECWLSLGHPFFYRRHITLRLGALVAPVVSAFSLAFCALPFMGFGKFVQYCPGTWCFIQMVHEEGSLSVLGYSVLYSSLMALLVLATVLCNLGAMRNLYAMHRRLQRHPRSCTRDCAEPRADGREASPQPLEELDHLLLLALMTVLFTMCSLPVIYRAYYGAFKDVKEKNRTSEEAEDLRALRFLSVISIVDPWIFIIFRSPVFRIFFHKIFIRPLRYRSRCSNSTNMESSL
Experiment: Measurement of cAMP using TR-FRET LANCE assay: Prostanoid DP1
Assay type: cell-based
Details: CHO cells expressing DP1 receptor, antagonism of PGD2 (EC80) cAMP response; read-out: pKi value (converted)
Experimental: CHO K1 cells, stably expressing the Prostanoid DP1 receptor, were maintained in culture in DMEM/F12, supplemented with 5% FBS, 2 mM L-glutamine, 400 μg/mL hygromycin B in 95%: 5% air: CO2 at 37° C. Following harvest from culture, cells were centrifuged at 250 g at 4° C. for 10 minutes and re-suspended in ice cold dialysed FCS. Once the cells were in mono-suspension they were slowly mixed with an equal volume of ice cold 80% dialysed FCS: 20% DMSO (pre-mixed and chilled several hours earlier). The cells were then aliquoted into 1 mL tubes within a 96 well block (pre-cooled to 4° C.). Once sealed, the tubes were frozen in a controlled rate freezer. The frozen cells were then transferred to a −140° C. freezer for long term storage.
Measurement of cAMP Using TR-FRET LANCE™ Assays: Prostanoid DP1
The potency of the compounds were determined using a LANCE™ cAMP assay kit as per the kit instructions. Briefly, CHO cells expressing DP1 receptor were thawed at 37° C., diluted in PBS and centrifuged at 1000 RPM for 5 minutes. Cells were then re-suspended (2 million cells/mL) in stimulation buffer (HBSS containing 0.01% BSA, 500 μM FAC IBMX, 5 mmol/L HEPES adjusted to pH 7.4 with KOH.
Briefly, cells were added (10,000 cells/well at 5 μL addition) to low volume white Greiner polypropylene 384-well plate assay plates containing 0.1 μl test compound. Following a 15 minute incubation at room temperature, 5 μl of antibody solution (stimulation buffer containing Alexia fluor 647) containing PGD2 at twice the determined EC80 concentration was added. Plates were incubated for a further 30 minutes at room temperature then detection mixture was added (kit components; detection buffer, europiumW8044-labelled streptavidin and biotin cAMP at 10 μl/well). Plates were covered and incubated the room temperature for 1 hour before reading on a Viewlux Microplate Imager using TR-FRET label settings.
All compounds were dissolved in DMSO at a concentration of 10 mM and were prepared in 100% DMSO using a 1 in 4 dilution step to provide 11-point concentration—response curves. The dilutions were transferred to the assay plates ensuring that the DMSO concentration was constant across the plate at 1% for all assays.
All data were normalised to the mean of 16 high and 16 low control wells on each plate. A four parameter curve fit of the following form was then applied.
Where a is the minimum, b is the Hill slope, c is the XC50, and d is the maximum. Data are presented as the mean pXC50 (negative log 10 of the molar XC50) with the standard deviation (SD) of number of tests in the experiments.

## CC(C)c1nc2c(n1Cc1ccc(Cl)c(Cl)c1)C(CC(=O)O)CCCC2 (single isomer, unassigned; isomer 1) [Example 4, (+)-[3-[(3,4-dichlorophenyl)methyl]-2-(1-methylethyl)-3,4,5,6,7,8-hexahydrocyclohepta[d]imidazol-4-yl]acetic acid (isomer 1)]
  Ki: ≤ 10 nM

## CC(C)c1nc2c(n1Cc1ccc(Cl)c(Cl)c1)C(CC(=O)O)CC2 (single isomer, unassigned; isomer 1) [Example 10, (+)-[3-[(3,4-dichlorophenyl)methyl]-2-(1-methylethyl)-3,4,5,6-tetrahydrocyclopenta[d]imidazol-4-yl]acetic acid ammonia salt (Isomer 1)]
  Ki: ≤ 10 nM

## CC(C)c1nc2c(n1Cc1ccc(Cl)c(Cl)c1)C(OCC(=O)O)CCCC2 (single isomer, unassigned; isomer 1) [Example 36, {[3-[(3,4-dichlorophenyl)methyl]-2-(1-methylethyl)-3,4,5,6,7,8-hexahydrocyclohepta[d]imidazol-4-yl]oxy}acetic acid ammonia salt (Isomer 1)]
  Ki: ≤ 100 nM

## CC(C)c1nc2c(n1Cc1ccc(Cl)c(Cl)c1)C(CC(=O)O)CCCC2 (single isomer, unassigned; isomer 2) [Example 5, [3-[(3,4-dichlorophenyl)methyl]-2-(1-methylethyl)-3,4,5,6,7,8-hexahydrocyclohepta[d]imidazol-4-yl]acetic acid (isomer 2)]
  Ki: ≤ 100 nM

## CC(C)c1nc2c(n1Cc1ccc(Cl)c(Cl)c1)C(CC(=O)O)CC2 (single isomer, unassigned; isomer 2) [Example 11, [3-[(3,4-dichlorophenyl)methyl]-2-(1-methylethyl)-3,4,5,6-tetrahydrocyclopenta[d]imidazol-4-yl]acetic acid ammonia salt (Isomer 2)]
  Ki: ≤ 100 nM

## CC(C)c1nc2c(n1Cc1ccc(Cl)cc1)C(CC(=O)O)CCC2 (single isomer, unassigned; isomer 2) [Example 17, (−)-[1-[(4-chlorophenyl)methyl]-2-(1-methylethyl)-4,5,6,7-tetrahydro-1H-benzimidazol-7-yl]acetic acid ammonia salt (Isomer 2)]
  Ki: ≤ 10 nM

## CC(C)c1nc2c(n1Cc1ccc(Cl)c(Cl)c1)C(CC(=O)O)CCC2 (single isomer, unassigned; isomer 2) [Example 20, (−)-[1-[3,4-dichlorophenyl)methyl]-2-(1-methylethyl)-4,5,6,7-tetrahydro-1H-benzimidazol-7-yl]acetic acid ammonia salt (Isomer 2)]
  Ki: ≤ 100 nM and ≤ 10 nM and ~2 nM

## CC(C)c1nc2c(n1Cc1ccc(Cl)cc1)C(OCC(=O)O)CCC2 (single isomer, unassigned; isomer 2) [Example 26, {[1-[(4-chlorophenyl)methyl]-2-(1-methylethyl)-4,5,6,7-tetrahydro-1H-benzimidazol-7-yl]oxy}acetic acid formic acid salt (isomer 2)]
  Ki: ≤ 10 nM

## CC(C)c1nc2c(n1Cc1ccc(Cl)cc1)C(CC(=O)O)CCC2 (single isomer, unassigned; isomer 2) [Example 32, (−)-[1-[(4-chlorophenyl)methyl]-2-(1-methylethyl)-4,5,6,7-tetrahydro-1H-benzimidazol-7-yl]acetic acid (Isomer 2)]
  Ki: ≤ 10 nM

## CC(C)c1nc2c(n1Cc1ccc(Cl)c(Cl)c1)C(OCC(=O)O)CCCC2 (single isomer, unassigned; isomer 2) [Example 37, {[3-[(3,4-dichlorophenyl)methyl]-2-(1-methylethyl)-3,4,5,6,7,8-hexahydrocyclohepta[d]imidazol-4-yl]oxy}acetic acid ammonia salt (Isomer 2)]
  Ki: ≤ 10 nM

## CC(C)c1nc2c(n1Cc1ccc(Cl)cc1)C(CC(=O)O)CCCC2 (stereo not drawn) [Example 1, [3-[(4-chlorophenyl)methyl]-2-(1-methylethyl)-3,4,5,6,7,8-hexahydrocyclohepta[d]imidazol-4-yl]acetic acid]
  Ki: ≤ 10 nM

## CC(C)c1nc2c(n1Cc1ccc(Cl)cc1)C(OCC(=O)O)CCCC2 (stereo not drawn) [Example 2]
  Ki: ≤ 100 nM

## CC(C)c1nc2c(n1Cc1ccc(Cl)c(Cl)c1)C(CC(=O)O)CCCC2 (stereo not drawn) [Example 3, [3-[(3,4-dichlorophenyl)methyl]-2-(1-methylethyl)-3,4,5,6,7,8-hexahydrocyclohepta[d]imidazol-4-yl]acetic acid ammonia salt]
  Ki: ≤ 10 nM

## CC(C)(C)c1nc2c(n1Cc1ccc(Cl)cc1)C(CC(=O)O)CCCC2 (stereo not drawn) [Example 6, [3-[(4-chlorophenyl)methyl]-2-(1,1-dimethylethyl)-3,4,5,6,7,8-hexahydrocyclohepta[d]imidazol-4-yl]acetic acid]
  Ki: ≤ 10 nM

## CC(C)c1nc2c(n1Cc1ccc(Cl)cc1)C(CC(=O)O)CC2 (stereo not drawn) [Example 7, [3-[(4-chlorophenyl)methyl]-2-(1-methylethyl)-3,4,5,6-tetrahydrocyclopenta[d]imidazol-4-yl]acetic acid ammonia salt]
  Ki: ≤ 100 nM

## CC(C)c1nc2c(n1Cc1ccc(Cl)c(Cl)c1)C(CC(=O)O)CC2 (stereo not drawn) [Example 9, [3-[(3,4-dichlorophenyl)methyl]-2-(1-methylethyl)-3,4,5,6-tetrahydrocyclopenta[d]imidazol-4-yl]acetic acid ammonia salt]
  Ki: ≤ 10 nM

## CC(C)(C)c1nc2c(n1Cc1ccc(Cl)cc1)C(CC(=O)O)CC2 (stereo not drawn) [Example 14, [3-[(4-chlorophenyl)methyl]-2-(1,1-dimethylethyl)-3,4,5,6-tetrahydrocyclopenta[d]imidazol-4-yl]acetic acid ammonia salt]
  Ki: ≤ 100 nM

## CC(C)c1nc2c(n1Cc1ccc(Cl)cc1)C(CC(=O)O)CCC2 (stereo not drawn) [Example 15, [1-[(4-chlorophenyl)methyl]-2-(1-methylethyl)-4,5,6,7-tetrahydro-1H-benzimidazol-7-yl]acetic acid]
  Ki: ≤ 10 nM

## CC(C)c1nc2c(n1Cc1ccc(Cl)cc1Cl)C(CC(=O)O)CCC2 (stereo not drawn) [Example 18, [1-(2,4-dichlorobenzyl)-2-isopropyl-4,5,6,7-tetrahydro-1H-benzimidazol-7-yl]acetic acid ammonia salt]
  Ki: ≤ 100 nM

## CC(C)c1nc2c(n1Cc1ccc(Cl)c(Cl)c1)C(CC(=O)O)CCC2 (stereo not drawn) [Example 19, [1-[(3,4-dichlorophenyl)methyl]-2-(1-methylethyl)-4,5,6,7-tetrahydro-1H-benzimidazol-7-yl]acetic acid]
  Ki: ≤ 10 nM

## O=C(O)CC1CCCc2nc(C3CCCC3)n(Cc3ccc(Cl)cc3)c21 (stereo not drawn) [Example 22, {1-[(4-chlorophenyl)methyl]-2-cyclopentyl-4,5,6,7-tetrahydro-1H-benzimidazol-7-yl}acetic acid ammonia salt]
  Ki: ≤ 100 nM

## CC(C)(C)c1nc2c(n1Cc1ccc(Cl)cc1)C(CC(=O)O)CCC2 (stereo not drawn) [Example 23, [1-[(4-chlorophenyl)methyl]-2-(1,1-dimethylethyl)-4,5,6,7-tetrahydro-1H-benzimidazol-7-yl]acetic acid, formic acid salt]
  Ki: ≤ 100 nM

## CC(C)c1nc2c(n1Cc1ccc(Cl)cc1)C(OCC(=O)O)CCC2 (stereo not drawn) [Example 24, {[1-[(4-chlorophenyl)methyl]-2-(1-methylethyl)-4,5,6,7-tetrahydro-1H-benzimidazol-7-yl]oxy}acetic acid, formic acid salt]
  Ki: ≤ 100 nM

## CC(C)c1nc2c(n1Cc1ccc(Cl)cc1)C(CC(=O)O)CCC2 (stereo not drawn) [Example 27, [1-[(4-chlorophenyl)methyl]-2-(1-methylethyl)-4,5,6,7-tetrahydro-1H-benzimidazol-7-yl]acetic acid ammonia salt]
  Ki: ≤ 100 nM
